Results reported in patent publication US20240391954A1, “MC4R AGONIST PEPTIDES” (The Regents of the University of Michigan, priority 2021, published 2024).
pEC50: −log10 of the molar value. Positions of bridges follow the written chain, without caps; N, C: chain ends. Non-standard residues stand in square brackets, D forms with d. Residues, ends and D or L forms follow the SMILES beside them. d1Nal = N[C@H](Cc1cccc2ccccc12)C(=O)O; 3Pal = N[C@@H](Cc1cccnc1)C(=O)O; Cit = NC(=O)NCCC[C@H](N)C(=O)O; Nle = CCCC[C@H](N)C(=O)O; Aib = CC(C)(N)C(=O)O

Experiments:
Assay type in all cases: cell-based
human MC3R = biological target: T1, human MC3R (Homo sapiens, UniProt P41968); test: split-luciferase cAMP sensor assay, agonist mode (measurement window 1), hMC3R; details: for Emax: % maximal activation, read-out: MC3R cAMP % max activation; for Emax / pEC50: agonist mode; for MC4R selectivity vs MC3R: MC4R versus MC3R; for pEC50: HEK-293 cells stably expressing hMC3R, read-out: MC3R cAMP EC50
T1 construct: expressed in transfected cells; host or cells: HEK-293 cells stably expressing the GScAMP22F split-luciferase cAMP sensor (parent reporter line from Promega); MC3R clone generated in-house, G418 selection
T1 sequence (P41968 whole entry): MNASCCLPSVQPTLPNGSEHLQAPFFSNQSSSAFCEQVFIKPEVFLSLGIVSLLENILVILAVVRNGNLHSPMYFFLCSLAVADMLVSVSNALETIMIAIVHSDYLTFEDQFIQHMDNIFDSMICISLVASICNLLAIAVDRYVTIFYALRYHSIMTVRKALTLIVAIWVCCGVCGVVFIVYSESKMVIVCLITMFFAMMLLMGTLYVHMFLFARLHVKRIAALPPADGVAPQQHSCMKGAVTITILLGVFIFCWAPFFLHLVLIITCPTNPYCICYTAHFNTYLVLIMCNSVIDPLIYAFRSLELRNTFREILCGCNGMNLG
Summary of the method: (§1)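 Live stable cell lines carrying receptor plus GloSensor cAMP22f split-luciferase, loaded with 4% D-luciferin in serum-free medium (~1% serum estimated during assay). Luminescence recorded during in-line peptide addition; direct agonist effect read in window 1, with 20 μM forskolin as normalization reference. EC50 from four-parameter sigmoid fit.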

human MC4R = biological target: T2, human MC4R (Homo sapiens, UniProt P32245); test: split-luciferase cAMP sensor assay, agonist mode (measurement window 1), hMC4R; details: agonist mode; for Emax: % maximal activation, read-out: MC4R cAMP % max activation; for pEC50: HEK-293 cells stably expressing hMC4R, read-out: MC4R cAMP EC50
T2 construct: host or cells: HEK-293 cells stably expressing the GScAMP22F split-luciferase cAMP sensor and hMC4R, G418 selection
T2 sequence (P32245 whole entry): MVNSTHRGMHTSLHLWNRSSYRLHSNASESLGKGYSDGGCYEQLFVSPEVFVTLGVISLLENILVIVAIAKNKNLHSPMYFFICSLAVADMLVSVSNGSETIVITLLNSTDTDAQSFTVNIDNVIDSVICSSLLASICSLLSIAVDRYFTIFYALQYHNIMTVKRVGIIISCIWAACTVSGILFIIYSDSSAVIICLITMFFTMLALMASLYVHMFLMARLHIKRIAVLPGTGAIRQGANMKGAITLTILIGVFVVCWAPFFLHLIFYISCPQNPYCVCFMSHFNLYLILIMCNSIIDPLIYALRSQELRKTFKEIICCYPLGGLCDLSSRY
Summary of the method: as §1

human MC1R = biological target: T3, human MC1R (Homo sapiens, UniProt Q01726); test: split-luciferase cAMP sensor assay, agonist mode, hMC1R; details: MC4R versus MC1R
T3 construct: expressed in transfected cells; host or cells: HEK-293 cells stably expressing hMC1R and the GScAMP22F cAMP sensor
T3 sequence (Q01726 whole entry): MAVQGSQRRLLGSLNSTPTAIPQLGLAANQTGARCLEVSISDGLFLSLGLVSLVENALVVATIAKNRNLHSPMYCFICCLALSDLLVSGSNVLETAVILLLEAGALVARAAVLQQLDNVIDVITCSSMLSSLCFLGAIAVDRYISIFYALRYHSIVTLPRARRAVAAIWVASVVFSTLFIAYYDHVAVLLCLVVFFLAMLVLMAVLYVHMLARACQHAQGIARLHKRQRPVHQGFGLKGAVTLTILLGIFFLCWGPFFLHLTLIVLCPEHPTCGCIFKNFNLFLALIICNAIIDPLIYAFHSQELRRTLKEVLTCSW
Summary of the method: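 HEK-293 cells stably expressing hMC1R and the GScAMP22F split-luciferase cAMP sensor, preloaded 120 min at 37° C with D-luciferin in serum-free medium. Peptide responses were taken as peak luminescence over 2-13 min minus 2-min baseline, normalized to the α-MSH ECmax. EC50 was obtained from a four-parameter variable-slope fit.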

SMILES	Emax (human MC3R)	MC4R selectivity vs MC3R (human MC3R)	Emax (human MC4R)	MC4R selectivity vs MC1R (human MC1R)	pEC50 (human MC3R)	pEC50 (human MC4R)
CCCC[C@H](NC(=O)[C@H](CCCNC(=N)N)NC(C)=O)C(=O)N[C@H]1CSSC[C@@H](C(N)=O)NC(=O)[C@H](Cc2c[nH]c3ccccc23)NC(=O)[C@H](CCCNC(=N)N)NC(=O)[C@H](Cc2ccccc2)NC(=O)[C@H](CCCNC(N)=O)NC1=O [CTX-1609, Arg-Nle-cyclo(Cys-Cit-Phe-Arg-Trp-Cys)] (Ac-R[Nle]C[Cit]FRWC-NH2; disulfide 3-8 (inferred))	65%	4.72	96%	4.15		
CC(=O)N[C@H]1CSSC[C@@H](C(N)=O)NC(=O)[C@H](Cc2c[nH]c3ccccc23)NC(=O)[C@H](CCCNC(=N)N)NC(=O)[C@@H](Cc2ccccc2)NC(=O)[C@H](CCCNC(=N)N)NC(=O)C(C)(C)NC1=O [CTX-1632, cyclo(Cys-Aib-Arg-D-Phe-Arg-Trp-Cys)] (Ac-C[Aib]R[dF]RWC-NH2; disulfide 1-7)	77%	36	105%	3.18		
CCCC[C@H](NC(=O)[C@H](CCCNC(=N)N)NC(C)=O)C(=O)N[C@H]1CSSC[C@@H](C(N)=O)NC(=O)[C@H](Cc2c[nH]c3ccccc23)NC(=O)[C@H](CCCNC(=N)N)NC(=O)[C@@H](Cc2cccc3ccccc23)NC(=O)[C@H](CCCNC(=N)N)NC1=O [CTX-1611, Arg-Nle-cyclo(Cys-Arg-D-Nal(1′)-Arg-Trp-Cys)] (Ac-R[Nle]CR[d1Nal]RWC-NH2; disulfide 3-8 (inferred))	58%	6.61	67%	0.25	7.96	8.80
CC(=O)N[C@@H](CCCNC(=N)N)C(=O)N[C@H]1CSSC[C@@H](C(N)=O)NC(=O)[C@H](Cc2ccccc2)NC(=O)[C@H](CCCNC(=N)N)NC(=O)[C@@H](Cc2ccccc2)NC(=O)[C@H](Cc2cccnc2)NC(=O)C(C)(C)NC1=O [CTX-1605, Arg-cyclo(Cys-Aib-Pal(3′)-D-Phe-Arg-Phe-Cys)] (Ac-RC[Aib][3Pal][dF]RFC-NH2; disulfide 2-8 (inferred))		>300	85%	0.14	< 5.00	
CC(=O)N[C@@H](CCCNC(=N)N)C(=O)N[C@H]1CSSC[C@@H](C(N)=O)NC(=O)[C@H](Cc2c[nH]c3ccccc23)NC(=O)[C@H](CCCNC(=N)N)NC(=O)[C@@H](Cc2ccccc2)NC(=O)[C@H](CCCNC(=N)N)NC(=O)[C@H](C)NC1=O [CTX-1267, Arg-cyclo(Cys-Ala-Arg-D-Phe-Arg-Trp-Cys)] (Ac-RCAR[dF]RWC-NH2; disulfide 2-8)	40%	4.07	96%	0.5	7.92	8.52
CCCC[C@H](NC(=O)[C@H](CCCNC(=N)N)NC(C)=O)C(=O)N[C@H]1CSSC[C@@H](C(N)=O)NC(=O)[C@H](Cc2c[nH]c3ccccc23)NC(=O)[C@H](CCCNC(=N)N)NC(=O)[C@@H](Cc2ccccc2)NC(=O)[C@H](Cc2cccnc2)NC1=O [CTX-1620, Arg-Nle-cyclo(Cys-Pal(3′)-D-Phe-Arg-Trp-Cys)] (Ac-R[Nle]C[3Pal][dF]RWC-NH2; disulfide 3-8 (inferred))	39%	12	91%	47		
CC(=O)N[C@@H](CCCNC(=N)N)C(=O)N[C@H]1CSSC[C@@H](C(N)=O)NC(=O)[C@@H](Cc2c[nH]c3ccccc23)NC(=O)[C@H](CCCNC(=N)N)NC(=O)[C@@H](Cc2ccccc2)NC(=O)[C@H](CCCNC(N)=O)NC(=O)[C@@H](C)NC1=O [CTX-1286, Arg-cyclo(Cys-D-Ala-Cit-D-Phe-Arg-D-Trp-Cys)] (Ac-RC[dA][Cit][dF]R[dW]C-NH2; disulfide 2-8)	24%	2.16	91%	3.4		
